Data from article PMC7404270, “Biological Activities of Cyclic and Acyclic B-Type Laxaphycins in SH-SY5Y Human Neuroblastoma Cells” (Marine Drugs, 2020).
Starred links: 1 amine or outer side, 2 acyl side, 3 side chain; linkers in the order of their positions; H or OH if unused. Non-standard residues stand in square brackets, D forms with d. Residues, ends and D or L forms follow the SMILES beside them. dβ3hGly(nHeptyl) = CCCCCCC[C@H](CC(=O)[*:2])N[*:1]; dAsn(3R-OH) = NC(=O)[C@H](O)[C@@H](N)C(=O)O; dLeu(3S-OH) = CC(C)[C@H](O)[C@@H](N)C(=O)O; Hyp = O=C(O)[C@@H]1C[C@@H](O)CN1; NMeI = CC[C@H](C)[C@H](NC)C(=O)O

What was measured:
[1] = system: caspase 3; test: Caspase 3 activity in cell lysates (EnzCheck kit); format: cell-based, human; conditions: SH-SY5Y cells, 24 h; 1 at 0.3 µM, 2 at 0.15 µM
Experimental: The detection of caspase 3 activity was carried out with the EnzCheck® Caspase-3 Assay Kit. Neuroblastoma cells were cultured in 12-well plates at 1 × 10^6 cells per well and treated with compounds. After 24 h, cells were lysed and an aliquot was collected to quantify protein concentration by the Bradford method. Then, the assay was performed following manufacturer’s instructions. Briefly, 50 µL of each sample were mixed with equal volume of Z-DEVD-AMC substrate and incubated for 30 min at room temperature. Then, fluorescence at 342 nm excitation and 441 nm emission was measured. Caspase 3 activity data were corrected by protein concentration values. STS (0.01 µM) was used as positive control.

[2] = system: SH-SY5Y human neuroblastoma cells; test: MTT cell metabolic activity assay; format: cell-based; conditions: 24 h, 0.001–10 µM, absorbance 595 nm, three experiments in triplicate
Experimental: (§1) SH-SY5Y human neuroblastoma cell line was obtained from American Type Culture Collection (ATCC), number CRL2266. Cells were cultured in Dulbecco´s modified Eagle´s medium: Nutrient Mix F-12 (DMEM/F-12) with 10% fetal bovine serum (FBS), 1% glutamax, 100 U/mL penicillin and 100 µg/mL streptomycin. Cells were maintained at 37 °C in a humidified atmosphere of 5% CO2 and 95% air and dissociated weekly using 0.05% trypsin/EDTA. All the reagents were obtained from Thermo Fischer Scientific.
The effect of laxaphycins on cell metabolic activity was evaluated by MTT (3-(4, 5-dimethyl thiazol-2-yl)-2, 5-diphenyl tetrazolium bromide) assay. SH-SY5Y cells were cultured in 96-well plates and treated with compounds at concentrations ranging from 0.001 to 10 µM for 24 h. Next, cells were rinsed three times and incubated for 1 h with MTT (500 µg/mL) dissolved in saline buffer. MTT excess was washed and cells were disaggregated with 5% sodium dodecyl sulfate. Absorbance of the colored formazan salt was measured at 595 nm in a spectrophotometer plate reader. Cell death control signal was subtracted from the other data.

[3] = system: SH-SY5Y human neuroblastoma cells; test: Annexin V-FITC / propidium iodide flow cytometry; format: cell-based; conditions: 24 h, 1 at 0.3 µM; for Cell survival (flow cytometry): 2 at 0.15 µM (MTT IC50 values); for Apoptotic cells (early and late, Annexin V positive): 2 at 0.15 µM, STS at 0.01 µM, percentage of total cells, mean ± SEM of three experiments
Experimental: The Annexin V-FITC Apoptosis Detection Kit was used to determine the cell death produced by compounds as previously described. SH-SY5Y cells were seeded in 12-well plates at 1 × 10^6 per well and incubated for 24 h with laxaphycins. Then, cells were washed with PBS and resuspended in Annexin binding buffer containing Annexin V-FITC and PI. Cells were incubated for 15 min at room temperature, resuspended in PBS and filtered. The fluorescence was determined by flow cytometry using the ImageStreamMKII (Amnis Corporation, Luminex Corp, Austin, TX, USA). 10,000 events were analyzed with IDEAS Application 6.0 software (Amnis Corporation, Luminex Corp, Austin, TX, USA). STS (Sigma Aldrich) at 0.01 µM was used as control in this assay.

[4] = system: p70 S6 kinase; test: Western blot, p70 S6 kinase activation (phosphorylated/total); format: cell-based, human; conditions: SH-SY5Y cells, 24 h; one range given for the three compounds together
Experimental: (§2) SH-SY5Y cells were seeded in 12-well plates and treated with laxaphycins for 24 h. Next, cells were washed with PBS and lysis buffer (50mM Tris HCl, 150 mM NaCl, 1mM EDTA and 1% Triton x-100, supplemented with a complete phosphatase/protease inhibitor cocktail) was added to each well. Cells were scrapped, sonicated and centrifuged at 13,000 rpm at 4 °C for 20 min.
(§3) In both cases, the supernatant was collected as the cytosolic fraction and quantified with the Bradford method. Samples containing 15 µg were used for electrophoresis, resolved in 4–20% sodium dodecyl sulphate polyacrylamide gel (Biorad, Madrid, Spain). Proteins were transferred to PVDF membranes (Merck Millipore) with a Trans-Blot® semi-dry transfer cell (Biorad). Membrane blocking and antibody incubation was performed in Snap i.d. system (Merck Millipore). Protein bands were detected with Supersignal West Pico Luminiscent Substrate and Supersignal West Femto Maximum Sensitivity Substrate (Thermo Fisher Scientific). Chemiluminiscence was determined with Diversity GeneSnap system and software (Syngene). LC3 II/I was detected with the primary antibody anti-LC3 II/I (1:1000, Abcam), the primary antibody anti-pmTOR (Ser2448) (1:1000, Merck Millipore) was used to recognize phospho-mTOR and the total levels of the kinase were determined with anti-mTOR antibody (1:10000, Abcam), beclin-1 was detected with anti-beclin-1 primary antibody (1:1000, Merck Millipore), p62 was quantified with anti-p62 antibody (1:1000, Merck Millipore), anti-phospho-p70 S6 kinase (Thr389) (1:1000, Merck Millipore) was used to detect phospho- p70 and the total levels were quantified using anti-p70 S6 kinase antibody (1:1000, Merck Millipore), anti-phospho-AMPK (Thr172) (1:500, Merck Millipore) was used to recognize the phosphorylated state of the kinase, and the total expression of the enzyme was detected with anti-AMPK antibody (1:500, Merck Millipore). Protein levels were normalized using β-Actin (1:20,000, Millipore). Baf A1 (0.001 µM), Rap (0.1 µM) and Comp C (1 µM) were used as controls for autophagic flux measurements. […]

[5] = system: SH-SY5Y human neuroblastoma cells; test: LDH cytotoxicity assay (cell viability); format: cell-based; conditions: 24 h, 0.001–10 µM
Experimental: as §1
Cell viability was assessed with the LDH test. Cells were seeded in 96-well plates and exposed to different compound concentrations (0.001–10 µM). Cells were incubated with compounds at 37 °C in humidified 5% CO2/95% air atmosphere for 24 h. Quillaja bark saponin was used as cellular death control. Then, cell medium was collected and LDH release was evaluated. Pierce^TM LDH-Cytotoxicity Assay Kit (Thermo Fisher Scientific) was used for LDH determination. Absorbance was measured at 490 nm to determine LDH release to the medium. Experiments were carried out in triplicate at least three independent times.

[6] = system: drug-sensitive and multidrug-resistant tumor cell lines; parameters: method as in PMID 17323939; conditions: previous works; read-out: IC50, toxicity towards drug-sensitive and multidrug-resistant tumor cell lines; cited from earlier work
Text: (§4) Moreover, this study is the first description of the effects on mitochondria and autophagy produced by acyclic B-type laxaphycins, and also confirms that the toxic effects of cyclic laxaphycins B are mediated by an apoptotic process. […] Our results in neuroblastoma cells are in ag ...

[7] = system: mTOR; test: Western blot, mTOR activation (phosphorylated/total); format: cell-based, human; conditions: SH-SY5Y cells, 24 h; Rap 0.1 µM
Experimental: as §2, §3

[8] = system: panel of cancer cell lines; conditions: read-out: IC50, cytotoxic effects against a panel of cancer cell lines; previous works; cited from earlier work
Text: as §4

CCCCCCC[C@@H]1CC(=O)N[C@@H](C(C)C)C(=O)N[C@H]([C@@H](O)C(C)C)C(=O)N[C@@H](C)C(=O)N[C@H]([C@@H](O)C(C)C)C(=O)N[C@@H](CCC(N)=O)C(=O)N(C)[C@@H]([C@@H](C)CC)C(=O)N[C@H]([C@@H](O)C(N)=O)C(=O)N[C@@H]([C@@H](C)O)C(=O)N2C[C@H](O)C[C@H]2C(=O)N[C@H](CC(C)C)C(=O)N[C@@H]([C@@H](C)O)C(=O)N1 [compound 2, laxaphycin B3] (cyclo([dβ3hGly(nHeptyl)]V[dLeu(3S-OH)]A[dLeu(3S-OH)]Q[NMeI][dAsn(3R-OH)]T[Hyp][dL]T))
Increase in caspase 3 activity [1]: about 20 % of control cells
IC50 [2]: 150 nM
Cell survival (flow cytometry) [3]: around 60 % of control cells
Apoptotic cells (early and late, Annexin V positive) [3]: 46.4% ± 4.8%
p70 S6 phosphorylation [4]: 53.5%–78.6%
Cytotoxicity / cell viability (LDH test), in words [5]: cytotoxic to neuroblastoma cells
IC50 [6]: ~1000 nM
mTOR activation (phospho/total), in words [7]: did not affect to the protein expression

CCCCCCC[C@@H]1CC(=O)N[C@@H](C(C)C)C(=O)N[C@H]([C@@H](O)C(C)C)C(=O)N[C@@H](C)C(=O)N[C@H]([C@@H](O)C(C)C)C(=O)N[C@@H](CCC(N)=O)C(=O)N(C)[C@@H]([C@@H](C)CC)C(=O)N[C@H]([C@@H](O)C(N)=O)C(=O)N[C@@H]([C@@H](C)O)C(=O)N2CCC[C@H]2C(=O)N[C@H](CC(C)C)C(=O)N[C@@H]([C@@H](C)O)C(=O)N1 [compound 1, laxaphycin B] (cyclo([dβ3hGly(nHeptyl)]V[dLeu(3S-OH)]A[dLeu(3S-OH)]Q[NMeI][dAsn(3R-OH)]TP[dL]T))
Increase in caspase 3 activity [1]: about 20 % of control cells
IC50 [2]: 300 nM
Cell survival (flow cytometry) [3]: around 60 % of control cells
Apoptotic cells (early and late, Annexin V positive) [3]: 50.4% ± 4.8%
Cytotoxicity / cell viability (LDH test), in words [5]: cytotoxic to neuroblastoma cells
IC50 [6]: ~1000 nM
IC50 [8]: < 2000 nM
mTOR activation (phospho/total), in words [7]: did not affect to the protein expression
